Measured values reported in US20260297070A1, “CYCLIC [COMPOUND LEFT OUT] WRN INHIBITORS” (Nimbus Wadjet, Inc., priority 2023, published 2026).

Biological target: T1, human Werner helicase (WRN-BV08, Uniprot Q14191, amino acids 517-1235 with L1074F point mutation) (Homo sapiens, UniProt Q14191, L1074F)
T1 construct: Uniprot Q14191, amino acids 517-1235 with L1074F point mutation; TEV-cleavable 8×His (C, cleaved yes); made in house; host or cells: Sf9 insect cells (baculovirus)
Assay: WRN (BV08) ADP-Glo Assay
Assay type: biochemical
Conditions: 0.15 nM WRN, 5 μM ATP, 0.1 nM DNA duplex, 15 min preincubation, 60 min at 25° C., pH 7.5, 1% DMSO; read-out: ADP-Glo_hWRN_IC50
Procedure, shortened: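 ADP-Glo luminescence read-out of ATP hydrolysis. Conditions: 0.15 nM WRN, 5 μM ATP, 0.1 nM DNA duplex, 1% DMSO, 60 min at 25 °C after 15 min compound preincubation. Max/min controls were DMSO and 20 μM NSC-617145; IC50 from four-parameter fit.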

T1 sequence (Q14191 with tags, fused parts or gaps L1074F limits assumed): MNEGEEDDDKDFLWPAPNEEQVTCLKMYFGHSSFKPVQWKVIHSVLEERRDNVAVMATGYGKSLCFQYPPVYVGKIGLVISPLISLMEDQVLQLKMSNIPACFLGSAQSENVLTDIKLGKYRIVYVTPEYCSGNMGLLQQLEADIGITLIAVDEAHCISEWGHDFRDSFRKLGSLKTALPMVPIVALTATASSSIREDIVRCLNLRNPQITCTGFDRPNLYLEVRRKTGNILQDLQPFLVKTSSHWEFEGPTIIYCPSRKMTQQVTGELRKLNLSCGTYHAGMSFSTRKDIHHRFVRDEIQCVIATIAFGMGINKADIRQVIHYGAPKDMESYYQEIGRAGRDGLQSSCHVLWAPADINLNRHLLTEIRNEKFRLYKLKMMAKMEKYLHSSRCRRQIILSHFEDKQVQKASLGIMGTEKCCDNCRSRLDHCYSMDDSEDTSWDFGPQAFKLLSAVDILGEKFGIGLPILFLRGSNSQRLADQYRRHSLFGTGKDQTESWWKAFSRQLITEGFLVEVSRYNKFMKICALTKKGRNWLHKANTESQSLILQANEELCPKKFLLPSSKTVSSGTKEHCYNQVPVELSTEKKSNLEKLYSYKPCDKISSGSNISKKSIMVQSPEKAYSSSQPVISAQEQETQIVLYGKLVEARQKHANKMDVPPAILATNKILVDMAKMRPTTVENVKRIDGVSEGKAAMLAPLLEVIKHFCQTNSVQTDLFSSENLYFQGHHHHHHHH

IC50, > 50 µM:
O=C(Cc1ccc(-c2ccc(F)cc2)cc1)N(Cc1ccccc1)C1C=C(CO)S(=O)(=O)C1 (centres unmarked) [I-640, N-benzyl-2-{4′-fluoro-[1,1′-biphenyl]-4-yl}-N-[5-(hydroxymethyl)-1,1-dioxo-2,3-dihydro-1lambda6-thiophen-3-yl]acetamide]
O=C(Cc1ccc2c(c1)COCC2)N(Cc1ccncc1)C1C=CS(=O)(=O)C1 (centres unmarked) [I-642, 2-(3,4-dihydro-1H-2-benzopyran-7-yl)-N-(1,1-dioxo-2,3-dihydro-1lambda6-thiophen-3-yl)-N-[(pyridin-4-yl)methyl]acetamide]
O=C(C1CC(c2ccccc2)O1)N(Cc1ccncc1)C1C=CS(=O)(=O)C1 (centres unmarked) [I-647, N-(1,1-dioxo-2,3-dihydro-1lambda6-thiophen-3-yl)-4-phenyl-N-[(pyridin-4-yl)methyl]oxetane-2-carboxamide]
COc1ccc(C(F)(F)C(=O)N(Cc2ccncc2)C2C=CS(=O)(=O)C2)cc1 (centres unmarked) [I-649, N-(1,1-dioxo-2,3-dihydro-1lambda6-thiophen-3-yl)-2,2-difluoro-2-(4-methoxyphenyl)-N-[(pyridin-4-yl)methyl]acetamide]
O=C(C1Cc2ccc(Cl)cc21)N(Cc1ccncc1)C1C=CS(=O)(=O)C1 (centres unmarked) [I-650, 4-chloro-N-(1,1-dioxo-2,3-dihydro-1lambda6-thiophen-3-yl)-N-[(pyridin-4-yl)methyl]bicyclo[4.2.0]octa-1,3,5-triene-7-carboxamide]
O=C(C1CC(C(F)(F)F)CO1)N(Cc1ccncc1)C1C=CS(=O)(=O)C1 (centres unmarked) [I-651, N-(1,1-dioxo-2,3-dihydro-1lambda6-thiophen-3-yl)-N-[(pyridin-4-yl)methyl]-4-(trifluoromethyl)oxolane-2-carboxamide]
O=C(C1CCc2cc(Cl)ccc2O1)N(Cc1ccncc1)C1C=CS(=O)(=O)C1 (centres unmarked) [I-653, 6-chloro-N-(1,1-dioxo-2,3-dihydro-1lambda6-thiophen-3-yl)-N-[(pyridin-4-yl)methyl]-3,4-dihydro-2H-1-benzopyran-2-carboxamide]
O=C(C1CCC2(CCC2)CO1)N(Cc1ccncc1)C1C=CS(=O)(=O)C1 (centres unmarked) [I-654, N-(1,1-dioxo-2,3-dihydro-1lambda6-thiophen-3-yl)-N-[(pyridin-4-yl)methyl]-6-oxaspiro[3.5]nonane-7-carboxamide]
Cn1cc2cc(CC(=O)N(Cc3ccncc3)C3C=CS(=O)(=O)C3)ccc2n1 (centres unmarked) [I-656, N-(1,1-dioxo-2,3-dihydro-1lambda6-thiophen-3-yl)-2-(2-methyl-2H-indazol-5-yl)-N-[(pyridin-4-yl)methyl]acetamide]
O=C(C1CCc2ccc(Br)cc21)N(Cc1ccncc1)C1C=CS(=O)(=O)C1 (centres unmarked) [I-658, 6-bromo-N-(1,1-dioxo-2,3-dihydro-1lambda6-thiophen-3-yl)-N-[(pyridin-4-yl)methyl]-2,3-dihydro-1H-indene-1-carboxamide]
O=C(C1CCc2cc(Br)ccc2O1)N(Cc1ccncc1)C1C=CS(=O)(=O)C1 (centres unmarked) [I-678, 6-bromo-N-(1,1-dioxo-2,3-dihydro-1lambda6-thiophen-3-yl)-N-[(pyridin-4-yl)methyl]-3,4-dihydro-2H-1-benzopyran-2-carboxamide]
O=C(Cn1c(=O)n(C2=CCCCC2)c2ccccc21)N(Cc1ccncc1)C1C=CS(=O)(=O)C1 (centres unmarked) [I-680, 2-[3-(cyclohex-1-en-1-yl)-2-oxo-2,3-dihydro-1H-1,3-benzodiazol-1-yl]-N-(1,1-dioxo-2,3-dihydro-1lambda6-thiophen-3-yl)-N-[(pyridin-4-yl)methyl]acetamide]

IC50, < 0.5 µM:
CC(C)c1csc(CN(C(=O)Cc2ccc(S(F)(F)(F)(F)F)cc2)C2C=CS(=O)(=O)C2)n1 (centres unmarked) [I-659, N-(1,1-dioxo-2,3-dihydro-1lambda6-thiophen-3-yl)-2-[4-(pentafluoro-lambda6-sulfanyl)phenyl]-N-{[4-(propan-2-yl)-1,3-thiazol-2-yl]methyl}acetamide]
COc1cc(CN(C(=O)Cn2ccc(-c3ccc(F)cc3)cc2=O)[C@@H]2C=CS(=O)(=O)C2)ccn1 [I-660, N-[(3R)-1,1-dioxo-2,3-dihydro-1lambda6-thiophen-3-yl]-2-[4-(4-fluorophenyl)-2-oxo-1,2-dihydropyridin-1-yl]-N-[(2-methoxypyridin-4-yl)methyl]acetamide]
O=C(Cn1cc(-c2ccc(F)cc2)cn1)N(Cc1ccnc(OC(F)F)c1)C1C=CS(=O)(=O)C1 (centres unmarked) [I-662, N-{[2-(difluoromethoxy)pyridin-4-yl]methyl}-N-(1,1-dioxo-2,3-dihydro-1lambda6-thiophen-3-yl)-2-[4-(4-fluorophenyl)-1H-pyrazol-1-yl]acetamide]
COc1cc(CN(C(=O)C(c2ccc(-c3ccc(F)c(F)c3)cc2F)n2cccn2)[C@@H]2C=CS(=O)(=O)C2)ccn1 (stereo partly drawn) [I-683, N-[(3R)-1,1-dioxo-2,3-dihydro-1lambda6-thiophen-3-yl]-N-[(2-methoxypyridin-4-yl)methyl]-2-(1H-pyrazol-1-yl)-2-{3,3′,4′-trifluoro-[1,1′-biphenyl]-4-yl}acetamide]

IC50, 10 to 50 µM:
O=C(Cc1ccc2c(c1)CCCC2)N(Cc1ccncc1)C1C=CS(=O)(=O)C1 (centres unmarked) [I-643, N-(1,1-dioxo-2,3-dihydro-1lambda6-thiophen-3-yl)-N-[(pyridin-4-yl)methyl]-2-(5,6,7,8-tetrahydronaphthalen-2-yl)acetamide]
O=C(C(c1ccc(-c2ccc(F)cc2)cc1)C1CC1)N(Cc1ccncc1)C1C=CS(=O)(=O)C1 (centres unmarked) [I-677, 2-cyclopropyl-N-(1,1-dioxo-2,3-dihydro-1lambda6-thiophen-3-yl)-2-{4′-fluoro-[1,1′-biphenyl]-4-yl}-N-[(pyridin-4-yl)methyl]acetamide]

IC50, 0.5 to 5 µM:
O=C(Cc1ccc(S(F)(F)(F)(F)F)cc1)N(Cc1noc(C2CC2)n1)C1C=CS(=O)(=O)C1 (centres unmarked) [I-644, N-[(5-cyclopropyl-1,2,4-oxadiazol-3-yl)methyl]-N-(1,1-dioxo-2,3-dihydro-1lambda6-thiophen-3-yl)-2-[4-(pentafluoro-lambda6-sulfanyl)phenyl]acetamide]
O=C(Cc1ccc(S(F)(F)(F)(F)F)cc1)N(Cc1nnc(C2CC2)s1)C1C=CS(=O)(=O)C1 (centres unmarked) [I-645, N-[(5-cyclopropyl-1,3,4-thiadiazol-2-yl)methyl]-N-(1,1-dioxo-2,3-dihydro-1lambda6-thiophen-3-yl)-2-[4-(pentafluoro-lambda6-sulfanyl)phenyl]acetamide]
O=C(Cc1ccc(S(F)(F)(F)(F)F)cc1)N(Cc1cscn1)C1C=CS(=O)(=O)C1 (centres unmarked) [I-657, N-(1,1-dioxo-2,3-dihydro-1lambda6-thiophen-3-yl)-2-[4-(pentafluoro-lambda6-sulfanyl)phenyl]-N-[(1,3-thiazol-4-yl)methyl]acetamide]
CC(=O)N1CCN(C(=O)C(C(=O)N(Cc2ccncc2)C2C=CS(=O)(=O)C2)c2ccc(-c3ccc(F)cc3)cc2)CC1 (centres unmarked) [I-667, 3-(4-acetylpiperazin-1-yl)-N-(1,1-dioxo-2,3-dihydro-1lambda6-thiophen-3-yl)-2-{4′-fluoro-[1,1′-biphenyl]-4-yl}-3-oxo-N-[(pyridin-4-yl)methyl]propanamide]
O=C(Cc1ccc(S(F)(F)(F)(F)F)cc1)N(CCc1nccs1)C1C=CS(=O)(=O)C1 (centres unmarked) [I-679, N-(1,1-dioxo-2,3-dihydro-1lambda6-thiophen-3-yl)-2-[4-(pentafluoro-lambda6-sulfanyl)phenyl]-N-[2-(1,3-thiazol-2-yl)ethyl]acetamide]
COc1cc(CN(C(=O)Cc2ccc(S(F)(F)(F)(F)F)cc2)C2C=CS(=O)(=O)C2)cc(OC)n1 (centres unmarked) [I-684, N-[(2,6-dimethoxypyridin-4-yl)methyl]-N-(1,1-dioxo-2,3-dihydro-1lambda6-thiophen-3-yl)-2-[4-(pentafluoro-lambda6-sulfanyl)phenyl]acetamide]

IC50, 5 to 10 µM:
O=C(Cc1ccc(S(F)(F)(F)(F)F)cc1)N(Cc1ccnnc1)C1C=CS(=O)(=O)C1 (centres unmarked) [I-646, N-(1,1-dioxo-2,3-dihydro-1lambda6-thiophen-3-yl)-2-[4-(pentafluoro-lambda6-sulfanyl)phenyl]-N-[(pyridazin-4-yl)methyl]acetamide]
O=C(Cc1ccc(S(F)(F)(F)(F)F)cc1)N(Cc1cnoc1)C1C=CS(=O)(=O)C1 (centres unmarked) [I-648, N-(1,1-dioxo-2,3-dihydro-1lambda6-thiophen-3-yl)-N-[(1,2-oxazol-4-yl)methyl]-2-[4-(pentafluoro-lambda6-sulfanyl)phenyl]acetamide]
CS(=O)(=O)N1CCN(C(=O)C(C(=O)N(Cc2ccncc2)C2C=CS(=O)(=O)C2)c2ccc(-c3ccc(F)cc3)cc2)CC1 (centres unmarked) [I-666, N-(1,1-dioxo-2,3-dihydro-1lambda6-thiophen-3-yl)-2-{4′-fluoro-[1,1′-biphenyl]-4-yl}-3-(4-methanesulfonylpiperazin-1-yl)-3-oxo-N-[(pyridin-4-yl)methyl]propanamide]
COc1cc(CN(C(=O)Cc2ccc(-c3ccc(F)cn3)c(O)c2)C2C=CS(=O)(=O)C2)ccn1 (centres unmarked) [I-668, N-(1,1-dioxo-2,3-dihydro-1lambda6-thiophen-3-yl)-2-[4-(5-fluoropyridin-2-yl)-3-hydroxyphenyl]-N-[(2-methoxypyridin-4-yl)methyl]acetamide]
COc1cc(CN(C(=O)C(OC2CCN(S(C)(=O)=O)CC2)c2ccc(-c3ccc(F)c(F)c3)cc2F)[C@@H]2C=CS(=O)(=O)C2)ccn1 (stereo partly drawn) [I-687, N-[(3R)-1,1-dioxo-2,3-dihydro-1lambda6-thiophen-3-yl]-2-[(1-methanesulfonylpiperidin-4-yl)oxy]-N-[(2-methoxypyridin-4-yl)methyl]-2-{3,3′,4′-trifluoro-[1,1′-biphenyl]-4-yl}acetamide]
